From patent US8192962B2, “Processes for detecting toxic substances” (Daikin Industries, Ltd., priority 2001, dated 2012)

System: Transport facilitation protein genes
Experiment: DNA chip mRNA expression in yeast, transport facilitation protein genes (Table 5)
Type: cell-based, Saccharomyces cerevisiae S288C
Procedure: Yeast (Saccharomyces cerevisiae S288C (α SUC2mal mel gap2 CUP1)) were incubated at 25° C. on YPD medium (yeast extract 1%, polypepton 2%, glucose 2%). One of toxic chemical substances was added to the cells at logarithmic growth phase, and the cells were further incubated for two hours. Cells were cultured without any chemical substance in the same condition, and were used as control. Concentrations of the chemical substances were defined to inhibit the growth of the yeast but not lead to death.
After completion of the incubation, the culture was centrifuged to collect the cells. To the cells, sodium acetate buffer (50 mM sodium acetate, 10 mM EDTA, 1% SDS) was added, and the mixture was shaken at 65° C. for five minutes, followed by returning to room temperature, and obtaining the supernatant, of which the procedures were repeated two times. To the supernatant, ½ amount of a solution of phenol/chloroform was added, and the mixture was centrifuged to give a supernatant, which was added with an equal amount of chloroform, and the mixture was centrifuged to give a supernatant. To the supernatant, an equal amount of isopropanol containing 0.3 M sodium acetate was added, and the mixture was allowed to stand at room temperature for 30 minutes, after which the mixture was centrifuged to give a sediment of the whole RNAs. Seventy % ethanol was added to the sediment, and the mixture was again centrifuged to give a sediment, which was then dried and dissolved in water. mRNA was isolated from the whole RNAs as followings. In view of the fact that a poly A chain is attached to the 3′ terminus of mRNA, a polynucleotide having a poly T structure which was immobilized on the surface of latex beads was used to trap the mRNA, and then the mRNA was washed and eluted with spine column (Oligotex-dT30<Super>mRNA Purification Kit, Takara). Reverse transcription of the mRNA was conducted with a reverse transcriptase (Super Script II Reverse Transcriptase; catalogue No. 18064-014, GibcoBRL) using fluorescence-labeled nucleotides to give cDNAs that were introduced with Cy3-dUTP or Cy5-dUTP during the reverse transcription.
The labeled cDNAs were dissolved in TE buffer (10mM Tris-HCl/1 mM EDTA, pH8.0), and the solution was dropped on the DNA chip containing the whole genes of yeast (DNA Chip Research Inc. Japan) so that the cDNAs were hybridized on the DNA chip at 65° C. for over 12 hours. The fluoresces intensity of the DNA chip was read with a scanner, and the ratio relative to the fluorescence intensity resulting from the absence of chemical substance was estimated as the following, which is shown in Tables 1 to 9: […]

C[S+](C)[O-] [(15), dimethylsulfoxide]
The level of expressed mRNA in the presence of chemical substance/The level of expressed mRNA in the absence of chemical substance (yeast gene YBR052C): 0.7
The level of expressed mRNA in the presence of chemical substance/The level of expressed mRNA in the absence of chemical substance (yeast gene YIL022W): 2.9
The level of expressed mRNA in the presence of chemical substance/The level of expressed mRNA in the absence of chemical substance (yeast gene YKL016C): 0.7
The level of expressed mRNA in the presence of chemical substance/The level of expressed mRNA in the absence of chemical substance (yeast gene YLR081W): 0.7
The level of expressed mRNA in the presence of chemical substance/The level of expressed mRNA in the absence of chemical substance (yeast gene YPR194C): 0.4
